Measurements from PMC4535769, “The Carboxy Terminus of the Ligand Peptide Determines the Stability of the MHC Class I Molecule H-2K^b: A Combined Molecular Dynamics and Experimental Study” (PLoS ONE, 2015).
Read-outs that look alike come from different tables or passages of the source. Ends that are not written are not given here.

What was measured:
[1] = biological target: T1, K^b/β2m (Mus musculus, UniProt P01901); test: Competitive binding against SIINFEKTAMRAL measured by fluorescence anisotropy (IC50); parameters: species or system murine
T1 construct: The TDTF analysis was performed on the luminal domain of K^b, which was produced in E.coli; made in house
T1 sequence (P61769 21-119 partner, one chain of several): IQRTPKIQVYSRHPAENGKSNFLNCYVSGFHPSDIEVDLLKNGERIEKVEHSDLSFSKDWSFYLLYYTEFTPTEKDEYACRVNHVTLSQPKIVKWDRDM
Method: Steady state measurements were performed with peptide-free folding reactions of K^b/β2m.
K^b was folded empty and then incubated with different concentrations of each peptide variant for five minutes. Then, the index peptide SIINFEKTAMRAL (fluorescently labeled on the lysine side chain) was added as a competitor, and the endpoint of its binding was measured by fluorescence anisotropy. From theory curves fitted to the data, we calculated the half-maximal concentration of inhibition of SIINFEKTAMRAL binding (IC50) for each modified peptide (Fig 6, S1F Fig).
Fig 6 Half-maximal concentration of peptide (IC50) required to inhibit the binding of the high affinity peptide SIINFEKTAMRAL. K^b/β2m complexes derived from the […] (B) structures were folded empty and then incubated for 5 minutes with different concentrations of full-length, truncated, or modified peptides. […] Binding curves (left) are of one representative experiment, and the IC50 values (right) are the average of three experiments.

[2] = biological target: T1, K^b/β2m; test: Thermal denaturation by tryptophan fluorescence (TDTF) of K^b/β2m/peptide complexes; type: binding, murine; conditions: for ∆GTDTF: derived from TDTF measurements by the two-state, single-transition model
Method: TDTF measurements and Tm determination were performed exactly as described previously [36].
To test our ranking by experiment, we next used the TDTF (thermal denaturation measured by tryptophan fluorescence) assay to determine the Tm of the K^b/peptide complexes. In this assay, thermal unfolding of the class I molecule is measured by the decrease in fluorescence intensity that occurs when the tryptophan indoles are exposed to the aqueous environment [49, 50]. The TDTF analysis was performed on the luminal domain of K^b, which was produced in E.coli and folded from inclusion bodies as a complex with human β2m and with or without peptide [36]. […] From the Tm values, we derived the ΔΔGTDTF values using the two-state model of denaturation [50, 51].
The folded heavy chain/β2m/peptide complex was prepared by diluting 200 ‏‏µg of the K^b heavy chain, 200 ‏‏µg of human β2m (both produced in E. coli), and none or 10 µM of peptide into 2 ml of the refolding buffer (100 mM Tris-Cl pH 8, 0.5 M arginine, 2 mM EDTA, 0.5 mM oxidized glutathione, 5 mM reduced glutathione), and the reaction was incubated at 4 °C for 48 hours, then ultracentrifuged at 10^5 ×g for 20 min to sediment aggregates. Concentration of soluble protein was then determined using the Bradford assay.
The folded complex was measured in PBS (150 mM NaCl, 10 mM phosphate pH 7.4) in a 1 cm × 1 cm cuvette in a Cary Eclipse fluorimeter (Agilent, Waldbronn, Germany) equipped with a Peltier heater and an in-cuvette thermocouple. The sample was heated at 0.30 K/min, and fluorescence values (λex= 290 nm, λem= 345 nm) were recorded every 0.1 K.
The differentials (F(T+∆T) – F(T))/∆T (with F = fluorescence intensity and ∆T = the temperature interval of recording) were smoothed over 40 points. The minimum of the resulting curve allows a simple optical assessment of the Tm. For display, LOWESS fits [17] to the differentials were performed with GraphPad Prism (GraphPad, La Jolla, CA, USA).
The binding free energy components were derived from the TDTF measurements according to the two-state, single-transition model [18,19]. […]

[3] = biological target: T2, cell surface K^b, RMA-S cells (Mus musculus, UniProt P01901); test: Brefeldin A (BFA) decay assay, cell surface K^b on RMA-S cells; type: cell-based, murine; conditions: 10 μM peptide, 10 μg/ml BFA, 37°C, after four hours, MAb Y3, flow cytometry, n = 3
T2 construct: endogenous in cells; host or cells: RMA-S cells (TAP-deficient)
T2 sequence (P01901 22-369): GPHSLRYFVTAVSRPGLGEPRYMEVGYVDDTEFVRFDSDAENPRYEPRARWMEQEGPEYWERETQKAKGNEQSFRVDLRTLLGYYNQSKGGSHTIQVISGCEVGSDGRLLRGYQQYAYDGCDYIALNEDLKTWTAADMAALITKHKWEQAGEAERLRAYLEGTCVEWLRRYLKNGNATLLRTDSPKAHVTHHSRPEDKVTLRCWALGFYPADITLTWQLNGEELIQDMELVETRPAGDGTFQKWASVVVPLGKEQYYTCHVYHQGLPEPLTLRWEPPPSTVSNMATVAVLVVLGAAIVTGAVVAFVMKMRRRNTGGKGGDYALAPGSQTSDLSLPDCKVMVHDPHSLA
T2 sequence (P01887 21-119 partner): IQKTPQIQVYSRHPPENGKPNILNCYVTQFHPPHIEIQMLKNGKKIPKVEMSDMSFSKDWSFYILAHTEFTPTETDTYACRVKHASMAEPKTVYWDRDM
Method: RMA-S cells were kept overnight at 25°C and at t = 0 treated with 10 μg/ml BFA (Applichem or Alfa Aesar) and with 10 μM peptide and transferred to 37°C for a maximum of 4 hours. At different time points, cells were washed twice with 1x PBS/0.01% NaN3, and cell surface K^b was measured with the MAb Y3 by flow cytometry.
We then incubated these cells with each peptide and measured the surface residence time of the K^b/peptide complexes by withdrawing aliquots of cells at different times, fixing, and staining with the antibody Y3 followed by flow cytometry (Fig 7, S1I Fig).
RMA-S cells were incubated overnight at 25°C, then 10 μM peptide (as indicated) was added to the medium, and cells were transferred to 37°C. H-2K^b surface levels were determined at each time point with MAb Y3 and flow cytometry. Averages ± SEM (n = 3) are normalized to initial mean fluorescence intensity (MFI).

[4] = K^b/β2m folded empty, incubated 5 min with peptide, then 100 nM SIINFEKTAMRAL, fluorescence anisotropy endpoint, average of three experiments, read-out: IC50, inhibition of SIINFEKTAMRAL binding

Compound: FAPGNYPA
- IC50 [1]: 18000 nM

Compound: APGNYPAL [APGNYPAL]
- IC50 [1]: 150 nM

Compound: SIINFEKA
- IC50 [1, 4]: 120 nM

Compound: SIINFEKL-Cdel
- ∆GTDTF [2]: -83.8 ± 8.3 kcal/mol
- ∆∆GTDTF ([2]; derived from Tm by the two-state model, relative to the full-length peptide): 20.7 kcal/mol

Compound: CC(C)C[C@H](NC(=O)[C@H](C)NC(=O)[C@@H]1CCCN1C(=O)[C@H](Cc1ccc(O)cc1)NC(=O)[C@H](CC(N)=O)NC(=O)CNC(=O)[C@@H]1CCCN1C(=O)[C@H](C)NC(=O)[C@@H](N)Cc1ccccc1)C(=O)O [FAPGNYPAL]
- K^b/peptide complexes remaining on the cell surface [3]: more than 80%

Compound: CC[C@H](C)[C@H](NC(=O)[C@@H](NC(=O)[C@@H](N)CO)[C@@H](C)CC)C(=O)N[C@@H](CC(N)=O)C(=O)N[C@@H](Cc1ccccc1)C(=O)N[C@@H](CCC(=O)O)C(=O)N[C@@H](CCCCN)C(=O)N[C@@H](CC(C)C)C(=O)O [reference compound]
- IC50 [1, 4]: 190 nM
- K^b/peptide complexes remaining on the cell surface [3]: more than 80%

Compound: SIINFEKG
- ∆GTDTF [2]: -92.6 ± 9.2 kcal/mol
